Entries after “also recorded” stand apart in the source; their conditions may differ. Blank lines part the entries; values can stand above or below the compound they belong to.
Assays:
AML1/ETO fusion protein = AML1/ETO fusion protein Western blot in Kasumi-1 cells; format: cell-based; details: 24 hours
Experimental: One type of AML has a signature chromosome translocation t(8:21) and therefore expression of a unique fusion protein AML1/ETO. […] In this study, Kasumi-1 cells were exposed to different concentrations of the HDAC inhibitor Compound A, or another HDAC1/2/6 selective inhibitor Compound G (data not shown), for 24 hours. The whole cell lysates were separated by SDS-PAGE (SDS-polyacrylamide gel electrophoresis) and transferred to a membrane (Western blot). The AML1/ETO fusion protein was detected on the membrane using an AML1 specific antibody.

MV4-11 cells = assay: MV4-11 tumor growth and survival in Ncr nu/nu mice; format: in vivo
Experimental: Ncr nu/nu mice implanted with MV4-11 cells were treated with vehicle, azacitidine (5 mg/kg IV q3d), or azacitidine (5 mg/kg IV q3d) plus Compound A (50 mg/kg IP 5/2/5/2/5/2/5) for up to 4 weeks. (A) Tumor volume was measured twice weekly and the mean tumor volume±SD is plotted. (B) Fold tumor volume change on day 19 relative to day 1 is plotted. (C) Survival curve was plotted.

[1] = system: bone marrow samples derived from AML patients; assay: Primary AML sample colony formation assay; format: cell-based; details: Homo sapiens, 336 h, read-out: median IC50, colony formation
Experimental: (A) 6 bone marrow samples derived from AML patients were cultured in methylcellulose-based medium and treated with increasing concentrations of Compound A, Compound J and azacitidine for 14 days when the colonies reach reasonable size. IC50 values for each drug are plotted. […] IC50 values were plotted for each patient sample.

multiple myeloma = details: preclinical models of multiple myeloma; cited from earlier work
[2] = Phase I trials; cited from earlier work
HDAC6 = molecular target: T1, HDAC6 (Homo sapiens, UniProt Q9UBN7); assay: HDAC enzyme assays (selectivity for HDAC6); format: biochemical
T1 sequence (Q9UBN7 1-1215): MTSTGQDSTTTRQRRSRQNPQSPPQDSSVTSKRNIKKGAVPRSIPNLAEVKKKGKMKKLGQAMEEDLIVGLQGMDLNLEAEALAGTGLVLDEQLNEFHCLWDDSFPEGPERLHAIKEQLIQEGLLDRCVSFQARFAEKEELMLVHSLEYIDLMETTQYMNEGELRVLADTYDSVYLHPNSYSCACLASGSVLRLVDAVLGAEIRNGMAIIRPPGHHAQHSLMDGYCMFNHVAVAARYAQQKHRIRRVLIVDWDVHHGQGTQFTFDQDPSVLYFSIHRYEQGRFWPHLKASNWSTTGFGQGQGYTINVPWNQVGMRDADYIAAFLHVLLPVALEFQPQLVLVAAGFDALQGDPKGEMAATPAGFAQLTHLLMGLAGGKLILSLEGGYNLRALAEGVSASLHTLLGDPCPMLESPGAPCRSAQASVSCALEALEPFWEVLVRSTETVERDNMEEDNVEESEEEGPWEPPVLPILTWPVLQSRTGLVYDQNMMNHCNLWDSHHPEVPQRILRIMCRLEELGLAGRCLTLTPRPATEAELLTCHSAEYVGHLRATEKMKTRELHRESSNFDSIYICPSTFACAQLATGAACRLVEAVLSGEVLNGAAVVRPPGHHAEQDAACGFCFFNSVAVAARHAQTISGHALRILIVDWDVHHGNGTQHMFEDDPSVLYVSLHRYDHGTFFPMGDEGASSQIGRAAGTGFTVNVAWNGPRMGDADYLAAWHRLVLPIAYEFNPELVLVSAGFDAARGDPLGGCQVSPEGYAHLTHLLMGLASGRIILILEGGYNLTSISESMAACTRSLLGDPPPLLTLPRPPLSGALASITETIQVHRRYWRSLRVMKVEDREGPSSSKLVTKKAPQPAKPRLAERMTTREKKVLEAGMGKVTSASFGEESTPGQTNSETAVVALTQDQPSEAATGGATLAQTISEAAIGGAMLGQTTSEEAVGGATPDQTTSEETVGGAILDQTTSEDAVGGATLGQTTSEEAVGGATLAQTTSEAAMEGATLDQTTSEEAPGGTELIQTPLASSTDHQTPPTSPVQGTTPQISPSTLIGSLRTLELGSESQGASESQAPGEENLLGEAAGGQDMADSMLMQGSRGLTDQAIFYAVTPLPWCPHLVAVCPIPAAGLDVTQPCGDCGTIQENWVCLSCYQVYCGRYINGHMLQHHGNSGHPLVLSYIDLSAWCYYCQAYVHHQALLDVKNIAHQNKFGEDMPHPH
Experimental: Compounds for testing are diluted in DMSO to 50 fold the final concentration and a ten point three fold dilution series is made. The compounds are diluted in assay buffer (50 mM HEPES, pH 7.4, 100 mM Kill, 0.001% Tween-20, 0.05% BASE, 20 μM TEC) to 6 fold their final concentration. The HDAC enzymes (purchased from BPS Biosciences) are diluted to 1.5 fold their final concentration in assay buffer. The dipeptide substrate and trypsin at 0.05 μM final concentration are diluted in assay buffer at 6 fold their final concentration. The final enzyme concentrations to use in these assays are 3.3 ng/ml (HDAC1), 0.2 ng/ml (HDAC2), 0.08 ng/ml (HDAC3) and 2 ng/ml (HDAC6). The final substrate concentrations to use are 16 μM (HDAC1), 10 μM (HDAC2), 17 μM (HDAC3) and 14 μM (HDAC6). Five μ1 of compound and 20 μl of enzyme are added to wells of a black, opaque 384 well plate in duplicate. Enzyme and compound are incubated together at room temperature for 10 min. Five μ1 of substrate is added to each well, the plate is shaken for 60 seconds and placed into a Victor 2 microliter plate reader. The development of fluorescence is monitored for 60 min. and the linear rate of the reaction is calculated. The IC50 is determined using Graph Pad Prism by a four parameter curve fit.

HL-60 cells = assay: HL-60 cell viability, combination with azacitidine (cell titer glo, CalcuSyn CI); format: cell-based; details: 72 hr, CI less than 1 = synergistic
Experimental: HL-60 cells were treated with increasing doses of azacitidine with Compound E (FIG. 11A) or with Compound A (FIG. 11B) or with Compound H (FIG. 11C) or with Compound C (FIG. 11D), and cell viability was assessed at 72 hr by cell titer glo assay. The combination index (CI) and relative fraction affected (Fa) was determined at each dose level using CalcuSyn software. […] Significant enhancement of azacitidine activity is observed in combination with HDAC1/2 inhibition.

[3] = Compound A 50 mg/kg IP plus azacitidine 5 mg/kg IV q3d, vs azacitidine or vehicle alone

SMILES: O=C(CCCCCCNC(=O)c1cnc(N(c2ccccc2)c2ccccc2)nc1)NO [Compound A, 2-(diphenylamino)-N-(7-(hydroxyamino)-7-oxoheptyl)pyrimidine-5-carboxamide]
amount of AML1/ETO fusion protein (AML1/ETO fusion protein): decrease the amount of this fusion protein in a concentration dependent manner
survival (MV4-11 cells; [3]): further enhanced; also recorded: increased survival in vivo
tumor growth (MV4-11 cells; [3]): further enhanced; also recorded: reduced tumor growth in vivo
fold tumor volume change (MV4-11 cells; Compound A plus azacitidine vs azacitidine or vehicle alone, day 19 relative to day 1): reduced the fold tumor volume change
IC50 [1]: 9.76 µM
synergy with bortezomib and immunomodulatory agents (multiple myeloma): synergizes with bortezomib
safety and tolerability [2]: improved safety and tolerability profile

selective for HDAC6 (HDAC6): about 10 times
SMILES: O=C(CCCCCCNC(=O)c1cnc(N(c2ccccc2)c2ccccc2Cl)nc1)NO [Compound B, 2-((2-chlorophenyl)(phenyl)amino)-N-(7-(hydroxyamino)-7-oxoheptyl)pyrimidine-5-carboxamide]

SMILES: Nc1ccc(-c2cccs2)cc1NC(=O)c1ccc2c(c1)cc(C1CC1)n2CCN1CCOCC1 [Compound E, N-(2-amino-5-(thiophen-2-yl)phenyl)-2-cyclopropyl-1-(2-morpholinoethyl)-1H-indole-5-carboxamide]
synergistic interaction with azacitidine on cell viability (CI) (HL-60 cells): strongest synergistic interaction

Reference: patent US9833466B2, “Treatment of leukemia with histone deacetylase inhibitors” (Acetylon Pharmaceuticals Inc., priority 2014, dated 2017)
